# From paper PMC9873307, “Methylone, a rapid acting entactogen with robust anxiolytic and antidepressant-like activity” (Frontiers in Psychiatry, 2023)
# How the values were obtained:
# [1] = tested on: male Sprague Dawley rats; test: Open field test (OFT): locomotor activity and time in center; format: in vivo, rat
# Experimental: Male Sprague Dawley rats (Charles River Laboratories) weighing 180–200 g on arrival, were used for all behavioral studies, which took place at Melior Discovery (Exton, PA, USA). Rats acclimated to their home cages for at least 1 week before testing, were maintained in a controlled environment on a 12 h light/dark cycle, with no more than 2 rats per cage. Animals received ad libitum access to standard rodent chow and water and were assigned randomly to treatment groups. All animal use and procedures were in accordance with established protocols approved by the Melior IACUC committee, Melior Standard Operation Procedures (SOP), and Transcend Therapeutics. Distinct cohorts of animals were used for each experiment/Figure presented in this manuscript.
# Methylone HCl (0.5–30 mg/kg; Cayman Chemical) or Fluoxetine HCl (10 mg/kg; Sigma-Aldrich) were formulated in sterile 0.9% saline vehicle before IP administration. Control animals received saline vehicle. Methylone or saline was administered 30 min prior to FST or OFT testing sessions. Fluoxetine or saline were administered 23.5, 5, and 1 h prior to testing, consistent with previous studies ([19]).
# All studies were performed by an experimenter blind to treatment group and according to standard protocols at Melior Discovery (Exton, PA, USA). The OFT was used to assess both locomotor activity and anxiety-like behavior. The OFT was run in a standard rat OFA chamber (17 ^^′′ × 17 ^^′′ × 12 ^^′′ , Med Associates). After habituation to the testing room and drug injection, rats were assessed for 30 min in the OFT using an automated activity monitoring system (MedAssociates). Locomotor activity was measured by recording the total ambulatory distance traveled (cm), reported in 5-min bins for the duration of the 30 min testing period. The center of the open field was defined as a 12 ^^′′ square, a predefined center setting on the MedAssociates analysis software. Time spent in the center of the open field, an anxiolytic measure, was also recorded for the 30 min testing period.
# [2] = tested on: serotonin uptake; conditions: cited from earlier work
# [3] = tested on: vesicular monoamine transporter 2 (VMAT2); parameters: method as in PMID 10528135; conditions: compared with MDMA; cited from earlier work
# [4] = tested on: mice; parameters: method as in PMID 23603357; conditions: 3–4 doses of 25 mg/kg over a 2-day period, 3 days after dosing; cited from earlier work
# [5] = tested on: other 5-HT, NE, or DA receptors; parameters: method as in PMID 31063768; conditions: cited from earlier work
# [6] = tested on: brain serotonin; conditions: repeated doses; cited from earlier work
# [7] = tested on: healthy volunteers; conditions: cited from earlier work
# [8] = binge-dosing regimen; cited from earlier work
compound,measurement,setting,value
"CNC(C)C(=O)c1ccc2c(c1)OCO2 (stereo not shown) [methylone, 3,4-methylenedioxy-N-methylcathinone]","distance traveled, first 5 min","[1]; methylone 0.5–10 mg/kg IP, 30 min before, Figure 4C",did not affect locomotor activity
same,"distance traveled, first 5 min","[1]; methylone 0.5–30 mg/kg, retest 24 h post-dose, all groups, Figure 4D",locomotor activity returned to baseline
same,time spent in the center,"[1]; methylone 5–30 mg/kg, 30 min after dosing, 30 min test, Figure 5A",significantly increased time spent in the center
same,"distance traveled, first 5 min","[1]; methylone 15–30 mg/kg IP, 30 min before, Figure 4C",significantly increased distance traveled
same,"distance traveled over 30-min session, 5-min bins","[1]; methylone 15–30 mg/kg IP, Figure 4F",increased distance traveled for the duration of the testing session
same,lower potency for inhibition of serotonin uptake vs MDMA,[2]; compared with MDMA,3–4 ×
same,less potent inhibitor of serotonin uptake than MDMA,"[2]; in vitro, compared with MDMA",3–4 fold
same,IC50,"[2]; in vitro, read-out: IC50 for inhibition of serotonin uptake",5.75 µM
same,lower potency at VMAT2 than MDMA,[3],> 10 fold
same,immobility in the FST,[4],increased immobility
same,"affinity for other 5-HT, NE, or DA receptors",[5],"weak, if any, affinity"
same,depletion of brain serotonin,[6],do not deplete brain serotonin
same,tolerability in two Phase 1 studies,[7]; healthy volunteers,well-tolerated
same,tolerability in phase 1 clinical study,[7]; human doses approximately 100–150 mg,"well tolerated, with no severe adverse events reported"
same,tolerability in clinical studies,[7]; human,well tolerated
same,effect on anxiety,[8],anxiogenic effects
